How the values were obtained:
Assay in all cases: relative viability (nuclei count vs DMSO), 5 days (fraction); higher = more cells survive
Idelalisib + Crizotinib = compound: CC[C@H](Nc1ncnc2[nH]cnc12)c1nc2cccc(F)c2c(=O)n1-c1ccccc1 [Idelalisib] + C[C@@H](Oc1cc(-c2cnn(C3CCNCC3)c2)cnc1N)c1c(Cl)ccc(F)c1Cl [Crizotinib] (partner 1 µM)
Outline: (§1)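 The day after seeding in 1536-well plates, lung cancer cell lines were treated by pin tool with a single drug, or with a fixed anchor-drug dose together with five library-drug doses (not always all listed) in √10 steps. After 5 days, a combined fix-and-stain solution (final 0.05% Triton X-100, 1% formaldehyde, 1 ug/ml Hoechst) was added. Nuclei counted on 4× images gave relative viability as treated counts over vehicle counts, reported as the median of duplicate plates.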

Idelalisib + Vorinostat = compound: CC[C@H](Nc1ncnc2[nH]cnc12)c1nc2cccc(F)c2c(=O)n1-c1ccccc1 [Idelalisib] + O=C(CCCCCCC(=O)Nc1ccccc1)NO [Vorinostat] (partner 1 µM)
Outline: as §1

Pemetrexed + Palbociclib = compound: Nc1nc2[nH]cc(CCc3ccc(C(=O)N[C@@H](CCC(=O)O)C(=O)O)cc3)c2c(=O)[nH]1 [Pemetrexed] + CC(=O)c1c(C)c2cnc(Nc3ccc(N4CCNCC4)cn3)nc2n(C2CCCC2)c1=O [Palbociclib] (partner 0.5 µM)
Outline: as §1

Pemetrexed + Decitabine = compound: Nc1nc2[nH]cc(CCc3ccc(C(=O)N[C@@H](CCC(=O)O)C(=O)O)cc3)c2c(=O)[nH]1 [Pemetrexed] + Nc1ncn([C@H]2C[C@H](O)[C@@H](CO)O2)c(=O)n1 [Decitabine] (partner 2 µM)
Outline: as §1

NCI-H1666
relative viability (Idelalisib + Crizotinib; first compound 0.04 µM): 0.953
relative viability (Idelalisib + Crizotinib; first compound 0.1265 µM): 1.03
relative viability (Idelalisib + Crizotinib; first compound 0.4 µM): 0.809
relative viability (Idelalisib + Crizotinib; first compound 1.265 µM): 0.964
relative viability (Idelalisib + Crizotinib; first compound 4 µM): 0.721
relative viability (Idelalisib + Vorinostat; first compound 0.04 µM): 1.01
relative viability (Idelalisib + Vorinostat; first compound 0.1265 µM): 1.02
relative viability (Idelalisib + Vorinostat; first compound 0.4 µM): 0.962
relative viability (Idelalisib + Vorinostat; first compound 1.265 µM): 1.05
relative viability (Idelalisib + Vorinostat; first compound 4 µM): 1.08
relative viability (Pemetrexed + Palbociclib; first compound 0.002 µM): 0.666
relative viability (Pemetrexed + Palbociclib; first compound 0.006325 µM): 0.647
relative viability (Pemetrexed + Palbociclib; first compound 0.02 µM): 0.704
relative viability (Pemetrexed + Palbociclib; first compound 0.06325 µM): 0.674
relative viability (Pemetrexed + Palbociclib; first compound 0.2 µM): 0.623
relative viability (Pemetrexed + Decitabine; first compound 0.002 µM): 0.637
relative viability (Pemetrexed + Decitabine; first compound 0.006325 µM): 0.724
relative viability (Pemetrexed + Decitabine; first compound 0.02 µM): 0.712
relative viability (Pemetrexed + Decitabine; first compound 0.06325 µM): 0.594
relative viability (Pemetrexed + Decitabine; first compound 0.2 µM): 0.612

NCI-H1734
relative viability (Idelalisib + Crizotinib; first compound 0.04 µM): 0.789
relative viability (Idelalisib + Crizotinib; first compound 0.1265 µM): 0.639
relative viability (Idelalisib + Crizotinib; first compound 0.4 µM): 0.604
relative viability (Idelalisib + Crizotinib; first compound 1.265 µM): 0.685
relative viability (Idelalisib + Crizotinib; first compound 4 µM): 0.527
relative viability (Idelalisib + Vorinostat; first compound 0.04 µM): 0.914
relative viability (Idelalisib + Vorinostat; first compound 0.1265 µM): 0.846
relative viability (Idelalisib + Vorinostat; first compound 0.4 µM): 0.627
relative viability (Idelalisib + Vorinostat; first compound 1.265 µM): 0.642
relative viability (Idelalisib + Vorinostat; first compound 4 µM): 0.755
relative viability (Pemetrexed + Palbociclib; first compound 0.002 µM): 0.192
relative viability (Pemetrexed + Palbociclib; first compound 0.006325 µM): 0.358
relative viability (Pemetrexed + Palbociclib; first compound 0.02 µM): 0.366
relative viability (Pemetrexed + Palbociclib; first compound 0.06325 µM): 0.333
relative viability (Pemetrexed + Palbociclib; first compound 0.2 µM): 0.346
relative viability (Pemetrexed + Decitabine; first compound 0.002 µM): 0.485
relative viability (Pemetrexed + Decitabine; first compound 0.006325 µM): 0.472
relative viability (Pemetrexed + Decitabine; first compound 0.02 µM): 0.52
relative viability (Pemetrexed + Decitabine; first compound 0.06325 µM): 0.517
relative viability (Pemetrexed + Decitabine; first compound 0.2 µM): 0.427

NCI-H1755
relative viability (Idelalisib + Crizotinib; first compound 0.04 µM): 0.812
relative viability (Idelalisib + Crizotinib; first compound 0.1265 µM): 0.878
relative viability (Idelalisib + Crizotinib; first compound 0.4 µM): 0.832
relative viability (Idelalisib + Crizotinib; first compound 1.265 µM): 0.745
relative viability (Idelalisib + Crizotinib; first compound 4 µM): 0.671
relative viability (Idelalisib + Vorinostat; first compound 0.04 µM): 0.884
relative viability (Idelalisib + Vorinostat; first compound 0.1265 µM): 0.748
relative viability (Idelalisib + Vorinostat; first compound 0.4 µM): 0.751
relative viability (Idelalisib + Vorinostat; first compound 1.265 µM): 0.634
relative viability (Idelalisib + Vorinostat; first compound 4 µM): 0.723
relative viability (Pemetrexed + Palbociclib; first compound 0.002 µM): 0.488
relative viability (Pemetrexed + Palbociclib; first compound 0.006325 µM): 0.423
relative viability (Pemetrexed + Palbociclib; first compound 0.02 µM): 0.478
relative viability (Pemetrexed + Palbociclib; first compound 0.06325 µM): 0.448
relative viability (Pemetrexed + Palbociclib; first compound 0.2 µM): 0.412
relative viability (Pemetrexed + Decitabine; first compound 0.002 µM): 0.708
relative viability (Pemetrexed + Decitabine; first compound 0.006325 µM): 0.738
relative viability (Pemetrexed + Decitabine; first compound 0.02 µM): 0.734
relative viability (Pemetrexed + Decitabine; first compound 0.06325 µM): 0.693
relative viability (Pemetrexed + Decitabine; first compound 0.2 µM): 0.695

NCI-H1915
relative viability (Idelalisib + Crizotinib; first compound 0.04 µM): 0.989
relative viability (Idelalisib + Crizotinib; first compound 0.1265 µM): 0.865
relative viability (Idelalisib + Crizotinib; first compound 0.4 µM): 0.848
relative viability (Idelalisib + Crizotinib; first compound 1.265 µM): 0.979
relative viability (Idelalisib + Crizotinib; first compound 4 µM): 0.895
relative viability (Idelalisib + Vorinostat; first compound 0.04 µM): 0.567
relative viability (Idelalisib + Vorinostat; first compound 0.1265 µM): 0.534
relative viability (Idelalisib + Vorinostat; first compound 0.4 µM): 0.498
relative viability (Idelalisib + Vorinostat; first compound 1.265 µM): 0.503
relative viability (Idelalisib + Vorinostat; first compound 4 µM): 0.448
relative viability (Pemetrexed + Palbociclib; first compound 0.002 µM): 0.487
relative viability (Pemetrexed + Palbociclib; first compound 0.006325 µM): 0.512
relative viability (Pemetrexed + Palbociclib; first compound 0.02 µM): 0.568
relative viability (Pemetrexed + Palbociclib; first compound 0.06325 µM): 0.521
relative viability (Pemetrexed + Palbociclib; first compound 0.2 µM): 0.522
relative viability (Pemetrexed + Decitabine; first compound 0.002 µM): 0.263
relative viability (Pemetrexed + Decitabine; first compound 0.006325 µM): 0.258
relative viability (Pemetrexed + Decitabine; first compound 0.02 µM): 0.243
relative viability (Pemetrexed + Decitabine; first compound 0.06325 µM): 0.25
relative viability (Pemetrexed + Decitabine; first compound 0.2 µM): 0.26

NCI-H1944
relative viability (Idelalisib + Crizotinib; first compound 0.04 µM): 1.38
relative viability (Idelalisib + Crizotinib; first compound 0.1265 µM): 0.994
relative viability (Idelalisib + Crizotinib; first compound 0.4 µM): 1.02
relative viability (Idelalisib + Crizotinib; first compound 1.265 µM): 0.976
relative viability (Idelalisib + Crizotinib; first compound 4 µM): 0.97
relative viability (Idelalisib + Vorinostat; first compound 0.04 µM): 0.68
relative viability (Idelalisib + Vorinostat; first compound 0.1265 µM): 0.526
relative viability (Idelalisib + Vorinostat; first compound 0.4 µM): 0.529
relative viability (Idelalisib + Vorinostat; first compound 1.265 µM): 0.5
relative viability (Idelalisib + Vorinostat; first compound 4 µM): 0.48
relative viability (Pemetrexed + Palbociclib; first compound 0.002 µM): 0.286
relative viability (Pemetrexed + Palbociclib; first compound 0.006325 µM): 0.304
relative viability (Pemetrexed + Palbociclib; first compound 0.02 µM): 0.339
relative viability (Pemetrexed + Palbociclib; first compound 0.06325 µM): 0.312
relative viability (Pemetrexed + Palbociclib; first compound 0.2 µM): 0.343
relative viability (Pemetrexed + Decitabine; first compound 0.002 µM): 0.378
relative viability (Pemetrexed + Decitabine; first compound 0.006325 µM): 0.37
relative viability (Pemetrexed + Decitabine; first compound 0.02 µM): 0.405
relative viability (Pemetrexed + Decitabine; first compound 0.06325 µM): 0.427
relative viability (Pemetrexed + Decitabine; first compound 0.2 µM): 0.458

NCI-H1975
relative viability (Idelalisib + Crizotinib; first compound 0.04 µM): 1.08
relative viability (Idelalisib + Crizotinib; first compound 0.1265 µM): 0.944
relative viability (Idelalisib + Crizotinib; first compound 0.4 µM): 0.817
relative viability (Idelalisib + Crizotinib; first compound 1.265 µM): 1
relative viability (Idelalisib + Crizotinib; first compound 4 µM): 0.81
relative viability (Idelalisib + Vorinostat; first compound 0.04 µM): 0.693
relative viability (Idelalisib + Vorinostat; first compound 0.1265 µM): 0.776
relative viability (Idelalisib + Vorinostat; first compound 0.4 µM): 0.681
relative viability (Idelalisib + Vorinostat; first compound 1.265 µM): 0.671
relative viability (Idelalisib + Vorinostat; first compound 4 µM): 0.588
relative viability (Pemetrexed + Palbociclib; first compound 0.002 µM): 0.306
relative viability (Pemetrexed + Palbociclib; first compound 0.006325 µM): 0.562
relative viability (Pemetrexed + Palbociclib; first compound 0.02 µM): 0.606
relative viability (Pemetrexed + Palbociclib; first compound 0.06325 µM): 0.375
relative viability (Pemetrexed + Palbociclib; first compound 0.2 µM): 0.237
relative viability (Pemetrexed + Decitabine; first compound 0.002 µM): 0.322
relative viability (Pemetrexed + Decitabine; first compound 0.006325 µM): 0.403
relative viability (Pemetrexed + Decitabine; first compound 0.02 µM): 0.378
relative viability (Pemetrexed + Decitabine; first compound 0.06325 µM): 0.291
relative viability (Pemetrexed + Decitabine; first compound 0.2 µM): 0.223

NCI-H1993
relative viability (Idelalisib + Crizotinib; first compound 0.04 µM): 0.873
relative viability (Idelalisib + Crizotinib; first compound 0.1265 µM): 0.893
relative viability (Idelalisib + Crizotinib; first compound 0.4 µM): 0.879
relative viability (Idelalisib + Crizotinib; first compound 1.265 µM): 0.834
relative viability (Idelalisib + Crizotinib; first compound 4 µM): 0.73
relative viability (Idelalisib + Vorinostat; first compound 0.04 µM): 0.983
relative viability (Idelalisib + Vorinostat; first compound 0.1265 µM): 1.09
relative viability (Idelalisib + Vorinostat; first compound 0.4 µM): 0.516
relative viability (Idelalisib + Vorinostat; first compound 1.265 µM): 0.921
relative viability (Idelalisib + Vorinostat; first compound 4 µM): 0.487
relative viability (Pemetrexed + Palbociclib; first compound 0.002 µM): 1.1
relative viability (Pemetrexed + Palbociclib; first compound 0.006325 µM): 0.605
relative viability (Pemetrexed + Palbociclib; first compound 0.02 µM): 0.635
relative viability (Pemetrexed + Palbociclib; first compound 0.06325 µM): 0.727
relative viability (Pemetrexed + Palbociclib; first compound 0.2 µM): 0.554
relative viability (Pemetrexed + Decitabine; first compound 0.002 µM): 0.619
relative viability (Pemetrexed + Decitabine; first compound 0.006325 µM): 0.661
relative viability (Pemetrexed + Decitabine; first compound 0.02 µM): 0.622
relative viability (Pemetrexed + Decitabine; first compound 0.06325 µM): 0.576
relative viability (Pemetrexed + Decitabine; first compound 0.2 µM): 0.461
